From patent publication US20230085307A1, “PYRIDAZINONE COMPOUND AND HERBICIDE” (NISSAN CHEMICAL CORPORATION, priority 2019, published 2023)

Legend:
barnyard grass [1] = experiment: Test Example 4: herbicidal effect by soil treatment (Table 19, symbol H); assay type: in vivo, barnyard grass (Echinochloa crus-galli); details: amount of applied herbicide 320 g/ha
Outline: (§1)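 Scoring uses the grading scale of an earlier test, three weeks post-application. Treatment consists of spraying a diluted emulsion formulation across the surface of sterilized diluvial soil in which seeds are buried near 1.5 cm deep; boxes are kept in a greenhouse between 25° C. and 30° C.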

persian speedwell [2] = experiment: Test Example 5: herbicidal effect by foliage application, plastic box (Table 20, symbol R); assay type: in vivo, Persian speedwell (Veronica persica); details: foliage application, 320 g/ha, evaluated three weeks after application
Outline: (§2)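 Post-emergence foliar test in sterilized diluvial soil. Compound applied as water-diluted emulsion at a predetermined rate to 14-day-old plants; evaluation at three weeks.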

windgrass [3] = experiment: Test Example 5: herbicidal effect by foliage application, plastic box (Table 20, symbol L); assay type: in vivo, windgrass (Apera spica-venti); details: foliage application, 320 g/ha, evaluated three weeks after application
Outline: as §2

barnyard grass [4] = experiment: Test Example 5: herbicidal effect by foliage application, plastic box (Table 20, symbol H); assay type: in vivo, barnyard grass (Echinochloa crus-galli); details: foliage application, 320 g/ha, evaluated three weeks after application
Outline: as §2

lambsquarters [5] = experiment: Test Example 5: herbicidal effect by foliage application, plastic box (Table 20, symbol O); assay type: in vivo, lambsquarters (Chenopodium album); details: foliage application, 320 g/ha, evaluated three weeks after application
Outline: as §2

persian speedwell [6] = experiment: Test Example 4: herbicidal effect by soil treatment (Table 19, symbol R); assay type: in vivo, Persian speedwell (Veronica persica); details: amount of applied herbicide 320 g/ha
Outline: as §1

green foxtail [7] = experiment: Test Example 4: herbicidal effect by soil treatment (Table 19, symbol G); assay type: in vivo, green foxtail (Setaria viridis); details: amount of applied herbicide 320 g/ha
Outline: as §1

velvetleaf [8] = experiment: Test Example 4: herbicidal effect by soil treatment (Table 19, symbol M); assay type: in vivo, velvetleaf (Abutilon theophrasti); details: amount of applied herbicide 320 g/ha
Outline: as §1

wild oat [9] = experiment: Test Example 4: herbicidal effect by soil treatment (Table 19, symbol I); assay type: in vivo, wild oat (Avena fatua); details: amount of applied herbicide 320 g/ha
Outline: as §1

southern crabgrass [10] = experiment: Test Example 4: herbicidal effect by soil treatment (Table 19, symbol F); assay type: in vivo, southern crabgrass (Digitaria ciliaris); details: amount of applied herbicide 320 g/ha
Outline: as §1

lambsquarters [11] = experiment: Test Example 4: herbicidal effect by soil treatment (Table 19, symbol O); assay type: in vivo, lambsquarters (Chenopodium album); details: amount of applied herbicide 320 g/ha
Outline: as §1

rice flat sedge = experiment: Test Example 3: herbicidal effect by foliage application, Wagner pot (Table 18, symbol E); assay type: in vivo, rice flat sedge (Cyperus iria); details: amount of applied herbicide 320 g/ha
Outline: (§3)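 Plants were sown in alluvial soil held under 0.1–0.5 cm standing water and grown 14 days in a greenhouse at 25–30 °C. An emulsifiable formulation, water-diluted to the set dose, was then sprayed onto the foliage, and effects were scored three weeks later using previously defined criteria.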

blackgrass = experiment: Test Example 5: herbicidal effect by foliage application, plastic box (Table 20, symbol J); assay type: in vivo, blackgrass (Alopecurus myosuroides); details: foliage application, 320 g/ha, evaluated three weeks after application
Outline: as §2

chickweed [12] = experiment: Test Example 4: herbicidal effect by soil treatment (Table 19, symbol P); assay type: in vivo, common chickweed (Stellaria media); details: amount of applied herbicide 320 g/ha
Outline: as §1

barnyard grass [13] = experiment: Test Example 3: herbicidal effect by foliage application, Wagner pot (Table 18, symbol H); assay type: in vivo, barnyard grass (Echinochloa crus-galli); details: amount of applied herbicide 320 g/ha
Outline: as §3

chickweed [14] = experiment: Test Example 5: herbicidal effect by foliage application, plastic box (Table 20, symbol P); assay type: in vivo, common chickweed (Stellaria media); details: foliage application, 320 g/ha, evaluated three weeks after application
Outline: as §2

windgrass [15] = experiment: Test Example 4: herbicidal effect by soil treatment (Table 19, symbol L); assay type: in vivo, windgrass (Apera spica-venti); details: amount of applied herbicide 320 g/ha
Outline: as §1

velvetleaf [16] = experiment: Test Example 5: herbicidal effect by foliage application, plastic box (Table 20, symbol M); assay type: in vivo, velvetleaf (Abutilon theophrasti); details: foliage application, 320 g/ha, evaluated three weeks after application
Outline: as §2

redroot pigweed [17] = experiment: Test Example 5: herbicidal effect by foliage application, plastic box (Table 20, symbol N); assay type: in vivo, redroot pigweed (Amaranthus retroflexus); details: foliage application, 320 g/ha, evaluated three weeks after application
Outline: as §2

southern crabgrass [18] = experiment: Test Example 5: herbicidal effect by foliage application, plastic box (Table 20, symbol F); assay type: in vivo, southern crabgrass (Digitaria ciliaris); details: foliage application, 320 g/ha, evaluated three weeks after application
Outline: as §2

green foxtail [19] = experiment: Test Example 5: herbicidal effect by foliage application, plastic box (Table 20, symbol G); assay type: in vivo, green foxtail (Setaria viridis); details: foliage application, 320 g/ha, evaluated three weeks after application
Outline: as §2

wild oat [20] = experiment: Test Example 5: herbicidal effect by foliage application, plastic box (Table 20, symbol I); assay type: in vivo, wild oat (Avena fatua); details: foliage application, 320 g/ha, evaluated three weeks after application
Outline: as §2

redroot pigweed [21] = experiment: Test Example 4: herbicidal effect by soil treatment (Table 19, symbol N); assay type: in vivo, redroot pigweed (Amaranthus retroflexus); details: amount of applied herbicide 320 g/ha
Outline: as §1

Chinese sprangletop = experiment: Test Example 3: herbicidal effect by foliage application, Wagner pot (Table 18, symbol D); assay type: in vivo, chinese sprangletop (Leptochloa chinensis); details: amount of applied herbicide 320 g/ha
Outline: as §3

Italian ryegrass [22] = experiment: Test Example 5: herbicidal effect by foliage application, plastic box (Table 20, symbol K); assay type: in vivo, Italian ryegrass (Lolium multiflorum); details: foliage application, 320 g/ha, evaluated three weeks after application
Outline: as §2

Italian ryegrass [23] = experiment: Test Example 4: herbicidal effect by soil treatment (Table 19, symbol K); assay type: in vivo, Italian ryegrass (Lolium multiflorum); details: amount of applied herbicide 320 g/ha
Outline: as §1

COCCOC(=O)Oc1c(C)nn(C)c(=O)c1-c1c(-c2ccc(F)cc2OC)sc2ccc(Cl)cc12 [2-114]
H: barnyard grass, herbicidal effect rating (barnyard grass [1]): 0 (Herbicidal rate of 5% or less (almost no effect)) | herbicidal effect on R: persian speedwell (persian speedwell [2]): 3 (Herbicidal rate of 40% or more and less than 70%) | herbicidal effect on L: windgrass (windgrass [3]): 4 (Herbicidal rate of 70% or more and less than 90%) | herbicidal effect on H: barnyard grass (barnyard grass [4]): 3 (Herbicidal rate of 40% or more and less than 70%) | herbicidal effect on O: lambsquarters (lambsquarters [5]): 3 (Herbicidal rate of 40% or more and less than 70%) | R: persian speedwell, herbicidal effect rating (persian speedwell [6]): 0 (Herbicidal rate of 5% or less (almost no effect)) | G: green foxtail, herbicidal effect rating (green foxtail [7]): 0 (Herbicidal rate of 5% or less (almost no effect)) | M: velvetleaf, herbicidal effect rating (velvetleaf [8]): 0 (Herbicidal rate of 5% or less (almost no effect)) | I: wild oat, herbicidal effect rating (wild oat [9]): 0 (Herbicidal rate of 5% or less (almost no effect)) | F: southern crabgrass, herbicidal effect rating (southern crabgrass [10]): 0 (Herbicidal rate of 5% or less (almost no effect)) | O: lambsquarters, herbicidal effect rating (lambsquarters [11]): 3 (Herbicidal rate of 40% or more and less than 70%) | herbicidal effect on E: rice flat sedge (rice flat sedge): 5 (Herbicidal rate of 90% or more (almost completely withered)) | herbicidal effect on J: blackgrass (blackgrass): 4 (Herbicidal rate of 70% or more and less than 90%) | P: chickweed, herbicidal effect rating (chickweed [12]): 4 (Herbicidal rate of 70% or more and less than 90%) | herbicidal effect on H: barnyard grass (barnyard grass [13]): 4 (Herbicidal rate of 70% or more and less than 90%) | herbicidal effect on P: chickweed (chickweed [14]): 5 (Herbicidal rate of 90% or more (almost completely withered)) | L: windgrass, herbicidal effect rating (windgrass [15]): 0 (Herbicidal rate of 5% or less (almost no effect)) | herbicidal effect on M: velvetleaf (velvetleaf [16]): 3 (Herbicidal rate of 40% or more and less than 70%) | herbicidal effect on N: redroot pigweed (redroot pigweed [17]): 1 (Herbicidal rate of 5% or more and less than 20%) | herbicidal effect on F: southern crabgrass (southern crabgrass [18]): 0 (Herbicidal rate of 5% or less (almost no effect)) | herbicidal effect on G: green foxtail (green foxtail [19]): 1 (Herbicidal rate of 5% or more and less than 20%) | herbicidal effect on I: wild oat (wild oat [20]): 0 (Herbicidal rate of 5% or less (almost no effect)) | N: redroot pigweed, herbicidal effect rating (redroot pigweed [21]): 5 (Herbicidal rate of 90% or more (almost completely withered)) | herbicidal effect on D: Chinese sprangletop (Chinese sprangletop): 3 (Herbicidal rate of 40% or more and less than 70%) | herbicidal effect on K: Italian ryegrass (Italian ryegrass [22]): 0 (Herbicidal rate of 5% or less (almost no effect)) | K: Italian ryegrass, herbicidal effect rating (Italian ryegrass [23]): 0 (Herbicidal rate of 5% or less (almost no effect))

Cc1nn(C)c(=O)c(-c2c(-c3ccccc3C(F)(F)F)sc3ccc(F)cc23)c1O [2-229]
herbicidal effect on H: barnyard grass (barnyard grass [1]): 1 (Herbicidal rate of 5% or more and less than 20%) | herbicidal effect on R: persian speedwell (criteria 0-5) (persian speedwell [2]): 5 (Herbicidal rate of 90% or more (almost completely withered)) | herbicidal effect on L: windgrass (criteria 0-5) (windgrass [3]): 4 (Herbicidal rate of 70% or more and less than 90%) | herbicidal effect on H: barnyard grass (criteria 0-5) (barnyard grass [4]): 3 (Herbicidal rate of 40% or more and less than 70%) | herbicidal effect on O: lambsquarters (criteria 0-5) (lambsquarters [5]): 4 (Herbicidal rate of 70% or more and less than 90%) | herbicidal effect on R: persian speedwell (persian speedwell [6]): 0 (Herbicidal rate of 5% or less (almost no effect)) | herbicidal effect on G: green foxtail (green foxtail [7]): 3 (Herbicidal rate of 40% or more and less than 70%) | herbicidal effect on M: velvetleaf (velvetleaf [8]): 1 (Herbicidal rate of 5% or more and less than 20%) | herbicidal effect on I: wild oat (wild oat [9]): 0 (Herbicidal rate of 5% or less (almost no effect)) | herbicidal effect on F: southern crabgrass (southern crabgrass [10]): 3 (Herbicidal rate of 40% or more and less than 70%) | herbicidal effect on O: lambsquarters (lambsquarters [11]): 3 (Herbicidal rate of 40% or more and less than 70%) | herbicidal effect on E: rice flat sedge (rice flat sedge): 4 (Herbicidal rate of 70% or more and less than 90%) | herbicidal effect on J: blackgrass (criteria 0-5) (blackgrass): 3 (Herbicidal rate of 40% or more and less than 70%) | herbicidal effect on P: chickweed (chickweed [12]): 1 (Herbicidal rate of 5% or more and less than 20%) | herbicidal effect on H: barnyard grass (barnyard grass [13]): 4 (Herbicidal rate of 70% or more and less than 90%) | herbicidal effect on P: chickweed (criteria 0-5) (chickweed [14]): 5 (Herbicidal rate of 90% or more (almost completely withered)) | herbicidal effect on L: windgrass (windgrass [15]): 0 (Herbicidal rate of 5% or less (almost no effect)) | herbicidal effect on M: velvetleaf (criteria 0-5) (velvetleaf [16]): 4 (Herbicidal rate of 70% or more and less than 90%) | herbicidal effect on N: redroot pigweed (criteria 0-5) (redroot pigweed [17]): 4 (Herbicidal rate of 70% or more and less than 90%) | herbicidal effect on F: southern crabgrass (criteria 0-5) (southern crabgrass [18]): 3 (Herbicidal rate of 40% or more and less than 70%) | herbicidal effect on G: green foxtail (criteria 0-5) (green foxtail [19]): 5 (Herbicidal rate of 90% or more (almost completely withered)) | herbicidal effect on I: wild oat (criteria 0-5) (wild oat [20]): 1 (Herbicidal rate of 5% or more and less than 20%) | herbicidal effect on N: redroot pigweed (redroot pigweed [21]): 2 (Herbicidal rate of 20% or more and less than 40%) | herbicidal effect on D: Chinese sprangletop (Chinese sprangletop): 3 (Herbicidal rate of 40% or more and less than 70%) | herbicidal effect on K: Italian ryegrass (criteria 0-5) (Italian ryegrass [22]): 4 (Herbicidal rate of 70% or more and less than 90%) | herbicidal effect on K: Italian ryegrass (Italian ryegrass [23]): 2 (Herbicidal rate of 20% or more and less than 40%)
